Results on 2 molecules are retold here after US8378085B2, “Bacterial ATP synthase binding domain” (priority 2004, dated 2013).

Converted amounts (≈) assume the structure as drawn. “And” between values parts separate entries of the source, which are not always exact repeats. Identical values can stand only once. Like-named read-outs stand apart in the source and are kept apart here.

The subject of experiment [1] is Haemophilus influenzae. The experiment is classed as cell-based. Particulars: Gram negative Haemophilus influenzae.
Experiment [2] deals with MDR-TB strains and fully drug-susceptible strains. Type of experiment: cell-based, Mycobacterium tuberculosis.
The test system of experiment [3] is Staphylococcus aureus. The experiment in a line: microbe, parasite or virus in culture. Particulars: Staphylococcus aureus including methicillin-resistant strains. Type of experiment: cell-based.
The subject of experiment [4] is M. avium complex. The experiment in a line: microbe, parasite or virus in culture. Type of experiment: cell-based. Particulars: Mycobacterium avium, 7 strains, read-out: MIC Median values.
In experiment [5] the test system is M. tuberculosis in log-phase growth. The experiment is classed as cell-based, Mycobacterium tuberculosis.
Experiment [6] has as its system M. smegmatis transformed with mutant atpE (D32V). The experiment is classed as cell-based. To be noted: wild-type M. smegmatis transformed with plasmid containing mutant F0 fragment (D32V); MIC practically identical to resistant strain R09.
In experiment [7] the test system is M. kansasii. The experiment in a line: microbe, parasite or virus in culture. Type of experiment: cell-based. To be noted: Mycobacterium kansasii, read-out: MIC Median values.
Experiment [8] has as its system M. bovis. The experiment in a line: microbe, parasite or virus in culture. Type of experiment: cell-based. To be noted: Mycobacterium tuberculosis variant bovis, read-out: MIC Median values.
The test system of experiment [9] is Enterococcus faecalis. Type of experiment: cell-based. To be noted: Gram positive Enterococcus faecalis.
Experiment [10] concerns Helicobacter pylori. Type of experiment: cell-based. To be noted: Gram negative Helicobacter pylori.
In experiment [11] the test system is M. tuberculosis. The experiment in a line: microbe, parasite or virus in culture. Type of experiment: cell-based. Particulars: Mycobacterium tuberculosis.
Experiment [12] has as its system M. smegmatis. The experiment in a line: MIC against M. smegmatis. The experiment is classed as cell-based, Mycobacterium smegmatis. Particulars: Mycolicibacterium smegmatis, 7 strains, read-out: MIC Median values. An excerpt: Table. 1 The minimum inhibitory concentrations (MICs) of the lead DARQ compound (J), that inhibited 90% of the growth of different mycobacterial species. the number of strains tested were n=1, unless otherwise indicated.

Experiment [13] concerns M. marinum. The experiment in a line: microbe, parasite or virus in culture. Type of experiment: cell-based. To be noted: Mycobacterium marinum, read-out: MIC Median values.
The subject of experiment [14] is M. abscessus. The experiment in a line: microbe, parasite or virus in culture. Type of experiment: cell-based, Mycobacterium abscessus. Particulars: Mycobacteroides abscessus, read-out: MIC Median values.
Experiment [15] relates to wild type M. tuberculosis. Type of experiment: cell-based, Mycobacterium tuberculosis.
In experiment [16] the test system is Nocardia. The experiment in a line: microbe, parasite or virus in culture. Type of experiment: cell-based.
In experiment [17] the test system is Corynebacterium. The experiment in a line: microbe, parasite or virus in culture. Type of experiment: cell-based.
In experiment [18] the test system is M. fortuitum. The experiment in a line: microbe, parasite or virus in culture. Type of experiment: cell-based, Mycobacterium fortuitum.
In experiment [19] the test system is Streptococcus pneumoniae. Type of experiment: cell-based. To be noted: Gram positive Streptococcus pneumoniae.
Experiment [20] deals with Escherichia coli. The experiment is classed as cell-based. To be noted: Gram negative Escherichia coli.
In experiment [21] the test system is M. avium complex. Particulars: statement in discussion; cited from earlier work.

Take `COc1nc2ccc(Br)cc2cc1[C@@H](c1ccccc1)[C@@](O)(CCN(C)C)c1cccc2ccccc12` [J]: the activity entry in experiment [1], in experiment [9], in experiment [10], in [19] and in experiment [20] was “not active” in each case. Also, in experiment [2], the “isolates of MDR-TB found susceptible” value is 43% and 57%. In addition, in [2], the “strains with MIC below 0.010 μg/ml” value is on record as “only one of 10”. Besides, the susceptibility of strains result in [2] is given as “all strains were susceptible”. The MIC is over 32 µg/mL in experiment [3]; 0.01 µg/mL (≈ 0.018 µM) in [4]; 0.003 µg/mL (≈ 0.0054 µM) in experiment [7]; 0.003 µg/mL (≈ 0.0054 µM) in experiment [8]; 0.03 µg/mL (≈ 0.054 µM) in [11] (H37RV, read-out: MIC Median values); 0.06 µg/mL (≈ 0.108 µM) in experiment [11] (read-out: median MIC). For the same molecule, the MIC is 0.007 µg/mL (≈ 0.0126 µM) in experiment [12]; 0.003 µg/mL (≈ 0.0054 µM) in experiment [13]; 0.25 µg/mL (≈ 0.45 µM) in [14]; over 4 µg/mL in experiment [16]; 4 µg/mL (≈ 7.2 µM) in experiment [17]; 0.01 µg/mL (≈ 0.018 µM) in experiment [18] (Mycolicibacterium fortuitum, M. fortuitum, 3 strains, read-out: MIC Median values). The “reduction in bacterial counts” value in experiment [5] is 10^3 log. Moreover, the “susceptibility of transformed cells” value in experiment [6] is on record as “resistant”. The “effect on ATP production (total cellular ATP)” value in experiment [15] is reported as “dose dependent decrease in ATP production”. Further, in experiment [18] (M. fortuitum resistant to fluoroquinolone, 2 strains), the “MIC Median values” is 0.010 µg/mL (≈ 0.018 µM).
With `NNC(=O)c1ccncc1` [isoniazid], the “activity against MAC” value in experiment [21] is listed as “no activity”. Besides, the “effect on ATP production (total cellular ATP)” value in [15] is “no effect”.
